According to patent US20240309007A1, “CRYSTALLINE FORMS OF 3-{4-[(2R)-2-AMINOPROPOXY]PHENYL}-N-[(1R)- 1-(3-FLUOROPHENYL) ETHYL]IMIDAZO[1,2-B]PYRIDAZIN-6-AMINE AND SALTS THEREOF” (ANHEART THERAPEUTICS (HANGZHOU) CO., LTD., priority 2021, published 2024):
Entries after “also recorded” stand apart in the source; their conditions may differ.

Legend:
[1] = Dynamic Vapor Sorption (DVS), hygroscopicity; format: physicochemical
Experimental: Dynamic Vapor Sorption (DVS) was performed by using Intrinsic DVS (Surface Measurement Systems, UK). A sample was weighed in an amount of 20-30 mg and was placed in a sample chamber. The measurement was performed at DMDT mode when the temperature of the sample chamber was maintained at 25±1° C.

[2] = Stability under stress conditions (XRPD and HPLC purity); format: physicochemical
Experimental: A predetermined amount of the crystalline form A of Compound 1 adipate was stored under the following conditions: (1) open to air under 25° C./60% RH for one or two weeks, (2) open to air under 40° C./75% RH for one or two weeks, (3) open to air under 80° C. for one day, and (4) exposed to light for 10 days. Crystalline form and chemical impurity were checked by XRPD and HPLC, respectively.
In Table 5, Sample No. 1 was a crystalline form A starting material before any test; Samples Nos. 2 and 3 were subject to condition (1) described above; Samples Nos. 4 and 5 were subject to condition (2) described above; Samples No. 6 was subject to condition (3) described above; and Samples Nos. 7 and 8 were subject to condition (4) described above where Sample No. 7 was not covered and Sample No. 8 was completely covered by a tin foil as a comparison.

[3] = Exposure to light (1.2 million lux h), 10 days, completely covered by a tin foil (comparison)
[4] = Exposure to light (1.2 million lux h), 10 days, not covered
[5] = open to air, 25° C./60% RH, 1 week
[6] = open to air, 25° C./60% RH, 2 weeks
[7] = open to air, 40° C./75% RH, 1 week
[8] = open to air, 40° C./75% RH, 2 weeks
[9] = starting material before any test

crystalline form (XRPD) of the sample before and after the DVS test [1]: did not change | weight increase (DVS) ([1]; at 80% RH, 25±1° C.): 0.235% | crystalline form on storage (physical stability) [2]: remains unchanged | physical and chemical stability (in words) [2]: superior physical and chemical stability | purity on storage (chemical stability) [2]: essentially unchanged | Purity (%) [2, 3]: 99.81% | XRPD [2, 3]: Form A | Purity (%) [2, 4]: 99.79% | XRPD [2, 4]: Form A | Purity (%) [2, 5]: 99.81% | XRPD [2, 5]: Form A | Purity (%) [2, 6]: 99.79% | XRPD [2, 6]: Form A | Purity (%) [2, 7]: 99.84% | XRPD [2, 7]: Form A | Purity (%) [2, 8]: 99.81% | XRPD [2, 8]: Form A | Purity (%) ([2]; open to air, 80° C., 1 day): 99.68% | XRPD ([2]; open to air, 80° C., 1 day): Form A | Purity (%) [2, 9]: 99.86% | XRPD [2, 9]: Form A
SMILES: C[C@@H](N)COc1ccc(-c2cnc3ccc(N[C@H](C)c4cccc(F)c4)nn23)cc1 [crystalline form A of Compound 1 adipate, 3-{4-[(2R)-2-aminopropoxy]phenyl}-N-[(1R)-1-(3-fluorophenyl)ethyl]imidazo[1,2-b]pyridazin-6-amine]
hygroscopicity (in words) ([1]; from DVS weight increase at 80% RH): low hygroscopicity; also recorded: very low or nearly no hygroscopicity
